Results published in ChEMBL document CHEMBL1201862, “PubChem BioAssay data set” (2004).
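Exposure lasted 48 hours, with cells grown in 96-well plates and compounds tested at five concentrations. The concentration for 50% growth inhibition is given as GI50.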 Calls of active or inactive are those of the source. No stated cut-off is given here; in the data, active = GI50 up to about 1.1 µM and inactive = higher.

Columns and labels:
Assay in all cases: NCI-60 cell line screen, 48 h
[1] = tested on: K562
[2] = tested on: IGROV-1
[3] = tested on: A498
[4] = tested on: EKVX
[5] = tested on: SF-539
[6] = tested on: COLO 205
[7] = tested on: SK-OV-3
[8] = tested on: SK-MEL-5
[9] = tested on: OVCAR-8
[10] = tested on: DU-145
[11] = tested on: SK-MEL-2
[12] = tested on: Hs-578T
[13] = tested on: TK-10
[14] = tested on: Malme-3M
[15] = tested on: UACC-62
[16] = tested on: RPMI-8226
[17] = tested on: OVCAR-4
[18] = tested on: NCI-H522
[19] = tested on: HL-60

| Structure (SMILES) | GI50 [1] | GI50 [2] | GI50 [3] | GI50 [4] | GI50 [5] | GI50 [6] | GI50 [7] | GI50 [8] | GI50 [9] | GI50 [10] | GI50 [11] | GI50 [12] | GI50 [13] | GI50 [14] | GI50 [15] | GI50 [16] | GI50 [17] | GI50 [18] | GI50 [19] |
| --- | --- | --- | --- | --- | --- | --- | --- | --- | --- | --- | --- | --- | --- | --- | --- | --- | --- | --- | --- |
| N#CC1(C#N)C2CCCCC23OC(=N)C1(C#N)C(c1ccco1)O3 (centres undefined) | 8.38 µM (inactive) | 18.3 µM (inactive) | 21.9 µM (inactive) | 25.8 µM (inactive) | 23.8 µM (inactive) | 11.9 µM (inactive) | > 100 µM (inactive) | 15.5 µM (inactive) | 23.2 µM (inactive) | 25.9 µM (inactive) | 17.6 µM (inactive) | 30.8 µM (inactive) | 17.1 µM (inactive) | 23.7 µM (inactive) | 16.6 µM (inactive) | – | – | – | – |
| CCOc1cc(CC[N+](C)(C)C)c2c(ccc3ccc(OC)c(OC)c32)c1OC | – | > 100 µM (inactive) | – | > 100 µM (inactive) | – | > 100 µM (inactive) | > 100 µM (inactive) | 63 µM (inactive) | > 100 µM (inactive) | > 100 µM (inactive) | – | – | – | > 100 µM (inactive) | > 100 µM (inactive) | 16.8 µM (inactive) | > 10 µM (inactive) | > 100 µM (inactive) | – |
| O=C(C[N+]1(c2ccccc2)CCOCC1)c1ccccc1 | 40.9 µM (inactive) | > 100 µM (inactive) | > 100 µM (inactive) | 96.6 µM (inactive) | – | – | – | > 100 µM (inactive) | > 100 µM (inactive) | > 100 µM (inactive) | > 100 µM (inactive) | > 100 µM (inactive) | > 100 µM (inactive) | > 100 µM (inactive) | > 100 µM (inactive) | – | > 100 µM (inactive) | 45.7 µM (inactive) | – |
| Nc1ccccc1/C=C\c1ccccc1 | > 100 µM (inactive) | > 100 µM (inactive) | – | > 100 µM (inactive) | > 100 µM (inactive) | – | > 100 µM (inactive) | > 100 µM (inactive) | > 100 µM (inactive) | > 100 µM (inactive) | – | > 100 µM (inactive) | > 100 µM (inactive) | > 100 µM (inactive) | > 100 µM (inactive) | > 100 µM (inactive) | – | – | > 100 µM (inactive) |
| [N-]=[N+]=CC(=O)OCC1NC(=O)C(COC(=O)C=[N+]=[N-])NC1=O (centres undefined) | > 100 µM (inactive) | > 100 µM (inactive) | > 100 µM (inactive) | > 100 µM (inactive) | > 100 µM (inactive) | > 100 µM (inactive) | > 100 µM (inactive) | – | > 100 µM (inactive) | > 100 µM (inactive) | > 100 µM (inactive) | > 100 µM (inactive) | > 100 µM (inactive) | > 100 µM (inactive) | > 100 µM (inactive) | > 100 µM (inactive) | > 100 µM (inactive) | – | > 100 µM (inactive) |
| O=C(NC(=O)c1cc(-c2ccccc2)n[nH]1)c1ccccc1 | 77.8 µM (inactive) | > 100 µM (inactive) | > 100 µM (inactive) | > 100 µM (inactive) | > 100 µM (inactive) | > 100 µM (inactive) | > 100 µM (inactive) | > 100 µM (inactive) | > 100 µM (inactive) | > 100 µM (inactive) | > 100 µM (inactive) | > 100 µM (inactive) | > 100 µM (inactive) | – | > 100 µM (inactive) | – | > 100 µM (inactive) | 70.8 µM (inactive) | – |
| CC1=CC(=O)/C(=C/NC(=S)c2ccccc2)C(=O)O1 | – | > 100 µM (inactive) | – | > 100 µM (inactive) | > 100 µM (inactive) | > 100 µM (inactive) | > 100 µM (inactive) | > 100 µM (inactive) | > 100 µM (inactive) | > 100 µM (inactive) | > 100 µM (inactive) | – | > 100 µM (inactive) | – | > 100 µM (inactive) | – | > 100 µM (inactive) | – | – |
| CN(C)c1nc(NC23CC4CC(CC(C4)C2)C3)nc(N(C)C)n1 | 2.81 µM (inactive) | – | > 54 µM (inactive) | 11.3 µM (inactive) | 21.8 µM (inactive) | 11.7 µM (inactive) | > 26.1 µM (inactive) | 11.1 µM (inactive) | > 53.3 µM (inactive) | 16.4 µM (inactive) | 20.1 µM (inactive) | 16.3 µM (inactive) | 35.6 µM (inactive) | 33.1 µM (inactive) | 25.8 µM (inactive) | 3.58 µM (inactive) | > 100 µM (inactive) | – | 3.61 µM (inactive) |
| O=S(=O)(O)c1ccc2c(/N=N/c3ccc(Cl)cc3)c(O)ccc2c1 | > 100 µM (inactive) | > 100 µM (inactive) | > 100 µM (inactive) | > 100 µM (inactive) | – | > 100 µM (inactive) | > 100 µM (inactive) | > 100 µM (inactive) | > 100 µM (inactive) | > 100 µM (inactive) | > 100 µM (inactive) | > 100 µM (inactive) | > 100 µM (inactive) | > 100 µM (inactive) | > 100 µM (inactive) | > 100 µM (inactive) | > 100 µM (inactive) | > 100 µM (inactive) | – |
| Brc1ccc(-c2[nH]c3ccccc3c2/C=N\Nc2ccc(-c3nc4ccccc4[nH]3)cc2)cc1 | < 0.01 µM (active) | < 0.01 µM (active) | – | – | < 0.01 µM (active) | < 0.01 µM (active) | < 0.01 µM (active) | < 0.01 µM (active) | < 0.01 µM (active) | < 0.01 µM (active) | < 0.0139 µM (active) | < 0.01 µM (active) | – | < 0.01 µM (active) | < 0.01 µM (active) | < 0.01 µM (active) | – | < 0.01 µM (active) | < 0.01 µM (active) |
| CSCCC(NC(=O)Cc1ccc(C(=O)c2ccccc2)cc1)C(=O)N1CCN(CCCCN2c3ccccc3Sc3cc(N=[N+]=[N-])ccc32)CC1 (centres undefined) | > 100 µM (inactive) | > 100 µM (inactive) | 72.3 µM (inactive) | > 100 µM (inactive) | – | > 100 µM (inactive) | > 100 µM (inactive) | 30.2 µM (inactive) | – | 47 µM (inactive) | > 100 µM (inactive) | – | > 100 µM (inactive) | > 100 µM (inactive) | > 100 µM (inactive) | 68.1 µM (inactive) | 16.5 µM (inactive) | 92 µM (inactive) | 30.6 µM (inactive) |
| N#C[BH2-][n+]1cn(C2CC(O)C(COP(=O)(O)OC3CC(n4ccc(N)nc4=O)OC3CO)O2)c2nc(N)[nH]c(=O)c21 (centres undefined) | 10 µM (inactive) | > 100 µM (inactive) | > 100 µM (inactive) | > 100 µM (inactive) | > 100 µM (inactive) | > 100 µM (inactive) | – | > 100 µM (inactive) | > 100 µM (inactive) | > 100 µM (inactive) | > 100 µM (inactive) | – | – | > 100 µM (inactive) | > 100 µM (inactive) | > 100 µM (inactive) | > 100 µM (inactive) | > 100 µM (inactive) | > 100 µM (inactive) |
| COc1ccc2c(c1)CN1C(=N2)CSC1c1cc([N+](=O)[O-])ccc1Cl (centres undefined) | 10.8 µM (inactive) | 58.7 µM (inactive) | – | 23.6 µM (inactive) | 28.5 µM (inactive) | 30.8 µM (inactive) | 45.3 µM (inactive) | 25.6 µM (inactive) | 48.8 µM (inactive) | – | 31.1 µM (inactive) | 47.1 µM (inactive) | > 100 µM (inactive) | 55.8 µM (inactive) | 23.2 µM (inactive) | 21 µM (inactive) | 39.1 µM (inactive) | 32.3 µM (inactive) | 16.8 µM (inactive) |
| N#CC1=C(Nc2ccccc2)SC=C(c2ccccc2)N=C1NCc1ccccc1 | 24.9 µM (inactive) | – | > 100 µM (inactive) | – | > 100 µM (inactive) | 65.5 µM (inactive) | > 100 µM (inactive) | 54.5 µM (inactive) | > 100 µM (inactive) | > 100 µM (inactive) | > 100 µM (inactive) | – | > 100 µM (inactive) | > 100 µM (inactive) | > 100 µM (inactive) | 18.7 µM (inactive) | > 100 µM (inactive) | 53.8 µM (inactive) | – |
| Cc1ccc(S(=O)(=O)n2ccn3c(=O)cc(C)nc23)cc1 | > 10 µM (inactive) | > 10 µM (inactive) | > 10 µM (inactive) | > 10 µM (inactive) | > 10 µM (inactive) | > 10 µM (inactive) | > 10 µM (inactive) | > 10 µM (inactive) | > 10 µM (inactive) | > 10 µM (inactive) | > 10 µM (inactive) | 8.59 µM (inactive) | > 10 µM (inactive) | > 10 µM (inactive) | > 10 µM (inactive) | > 10 µM (inactive) | > 10 µM (inactive) | – | > 10 µM (inactive) |
| CC(C)(C)[Si](C)(C)OCCc1ccccc1C1CC2(S(=O)(=O)c3ccccc3)ON1CC2S(=O)(=O)c1ccccc1 (centres undefined) | > 100 µM (inactive) | > 100 µM (inactive) | > 100 µM (inactive) | > 100 µM (inactive) | > 100 µM (inactive) | > 100 µM (inactive) | > 100 µM (inactive) | > 100 µM (inactive) | > 100 µM (inactive) | > 100 µM (inactive) | > 100 µM (inactive) | > 100 µM (inactive) | > 100 µM (inactive) | – | > 100 µM (inactive) | – | > 100 µM (inactive) | – | – |
| COC(=O)C1=C(C)NC(C)=C(C(=O)OC)C1c1ccc(N=O)cc1 | 1.07 µM (active) | 16.1 µM (inactive) | – | 17 µM (inactive) | 17.7 µM (inactive) | 8.77 µM (inactive) | 16.6 µM (inactive) | 16.6 µM (inactive) | 8.45 µM (inactive) | 12.9 µM (inactive) | 13.7 µM (inactive) | 7.31 µM (inactive) | 15.4 µM (inactive) | 11.5 µM (inactive) | 15.3 µM (inactive) | 1.58 µM (inactive) | 3.14 µM (inactive) | 1.15 µM (inactive) | 1.3 µM (inactive) |
